The test concerns M1 seed of maize inbred line UE95 (sensitive plants). The test is described as follows: Pre-emergence screening of M1 seed. In kind it is in vivo, Zea mays. Here is the method:
M1 seed was sown, 100 seeds per tray, in WCB growing medium (low organic matter, 45% loam, 55% grit) and sprayed to 'run-off' using a track sprayer, with a solution of imazethapyr (PURSUIT) at a concentration calculated to be the equivalent of 250 g/ha of active ingredient . The seeds were covered with 0.5 inch of WCB and grown in the glasshouse at 25°C.
The chosen application rate was such that germination was close to 100%, but subsequently all susceptible plants were severely affected. However, after about two weeks, the initial effect of the herbicide became apparent: thin striped leaves and reduced height of only about 20% of the height of the control plants. […] Unsprayed UE95 plants were always grown in parallel with each screen as a control as it was already known that normal and M1 seedlings of UE95 are almost indistinguishable when germinated and grown to maturity without spraying.

The compound `CCc1cnc(C2=NC(=O)C(C)(C(C)C)N2)c(C(=O)O)c1` (stereo not drawn) [Imazethapyr, 5-ethyl-2-(5-iso-propyl-5-methyl-4-oxo-2-imidazolin-2-yl) nicotinic acid] yielded a germination (250 g/ha of active ingredient, pre-emergence, glasshouse at 25°C) of around 100%. Besides, the “effect on sensitive plants” value (250 g/ha, after three to four weeks) is listed as “almost all the sensitive plants were completely dead”. For the same compound, where the note is “250 g/ha, susceptible plants, after about two weeks”, the reduced height entry is recorded as “about 20 % of the height of the control plants”.

Values taken from patent EP0472573B1, “HERBICIDE RESISTANT MAIZE” (ZENECA LIMITED, priority 1989, dated 1990).
